According to PubChem BioAssay (NCI):
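The compound was tested at five concentrations on cells cultured in 96-well plates, with a 48-hour exposure period. GI50 is the concentration that inhibits growth by half. At the TGI there is no net growth.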

What was measured:
Assay in all cases: NCI anticancer screen, dose series, 48 h
[1] = tested on: SNB-75 CNS
[2] = tested on: TK-10 renal
[3] = tested on: PC-3 prostate
[4] = tested on: HOP-92 NSCLC
[5] = tested on: LOX IMVI melanoma
[6] = tested on: U251 CNS
[7] = tested on: COLO 205 colon
[8] = tested on: SK-MEL-2 melanoma
[9] = tested on: T-47D breast
[10] = tested on: MDA-MB-435
[11] = tested on: SK-OV-3 ovarian
[12] = tested on: NCI-H522 lung
[13] = tested on: SF-539 CNS
[14] = tested on: SK-MEL-28 melanoma
[15] = tested on: HT29 colon
[16] = tested on: SW-620 colon
[17] = tested on: 786-0 renal
[18] = tested on: NCI-H460 lung
[19] = tested on: IGROV1 ovarian
[20] = tested on: SN12C renal
[21] = tested on: SR leukemia
[22] = tested on: BT-549 breast
[23] = tested on: NCI-H23 lung
[24] = tested on: A498 renal
[25] = tested on: HCT-116 colon
[26] = tested on: UACC-257 melanoma
[27] = tested on: SNB-19 CNS
[28] = tested on: RPMI-8226 leukemia
[29] = tested on: SF-295 CNS

CN1CCN(Cc2ccc(NC(=O)c3cncc(C#Cc4cnc5[nH]ncc5c4)c3)cc2C(F)(F)F)CC1
GI50 [1]: 3.4 µM
TGI [1]: 18.3 µM
GI50 [2]: 3.45 µM
TGI [2]: 17.9 µM
GI50 [3]: 3.7 µM
TGI [3]: 60.9 µM
GI50 [4]: 1.32 µM
TGI [4]: 6.02 µM
GI50 [5]: 0.618 µM
TGI [5]: 2.38 µM
GI50 [6]: 4.36 µM
TGI [6]: 25.4 µM
GI50 [7]: 1.87 µM
TGI [7]: 13.2 µM
GI50 [8]: 0.535 µM
TGI [8]: 2.78 µM
GI50 [9]: 3.2 µM
TGI [9]: 23 µM
GI50 [10]: 1.22 µM
TGI [10]: 14.5 µM
GI50 [11]: 1.79 µM
TGI [11]: 13.5 µM
GI50 [12]: 1 µM
TGI [12]: 11.3 µM
GI50 [13]: 0.925 µM
TGI [13]: 4.99 µM
GI50 [14]: 1.7 µM
TGI [14]: 8.66 µM
GI50 [15]: 1.23 µM
TGI [15]: 13.7 µM
GI50 [16]: 1.65 µM
TGI [16]: 16.2 µM
GI50 [17]: 3.55 µM
TGI [17]: 27 µM
GI50 [18]: 1.3 µM
TGI [18]: 13.9 µM
GI50 [19]: 0.685 µM
TGI [19]: 13.1 µM
GI50 [20]: 1.82 µM
TGI [20]: 11.4 µM
GI50 [21]: 0.851 µM
TGI [21]: 11.4 µM
GI50 [22]: 3.81 µM
TGI [22]: 16.7 µM
GI50 [23]: 2.28 µM
TGI [23]: 16.6 µM
GI50 [24]: 1.96 µM
TGI [24]: 15 µM
GI50 [25]: 0.737 µM
TGI [25]: 12.8 µM
GI50 [26]: 2.86 µM
TGI [26]: 17 µM
GI50 [27]: 8.72 µM
TGI [27]: 21.4 µM
GI50 [28]: 4.03 µM
TGI [28]: 50.3 µM
GI50 [29]: 3.13 µM
TGI [29]: 16.3 µM
